Laboratory results reported in patent publication US9587225B2, “Low-molecular-compound for improving production, maintenance and proliferation of pluripotent stem cells, composition comprising the same, and culture method” (KOREA RESEARCH INSTITUTE OF BIOSCIENCE AND BIOTECHNOLOGY, priority 2012, dated 2017).

Experiments:
human skin fibroblasts [1] = assay: Cell growth (total number of cells) during reprogramming culture; type: cell-based
From the text: In still another example of the present invention, whether the novel compound RSC-133 has the effect of promoting the growth and proliferation of cells in a culture process for inducing reprogramming was examined by measuring the total number of cells at various time points (FIG. 11). […] In addition, a change in the proliferation of cells during a culture process for inducing reprogramming was examined by a BrdU assay.
FIG. 11 is a graph showing the effect of RSC-133 on cell growth during a reprogramming process. The results were obtained in the same manner as those in FIG. 10. The values shown on the graph are mean values. The data ate are expressed as mean±SD (n=3).
FIG. 12 is a graph showing the results of examining the effect of RSC-133 on the growth of human skin fibroblasts or human skin fibroblasts infected with a reprogramming factor (OSKM) virus. The values shown on the graph are mean values. The data are mean±SD (n=3).
In addition, the growth rate of cells is associated with the self-renewal ability of embryonic stem cells. Thus, whether the novel compound RSC-133 can promote cell growth during reprogramming was examined. As a result, it could be seen that when reprogramming was induced while the cells were treated with RSC-133, the growth rate of the cells increased by about 1.7 times compared to that of the control group (FIG. 11). […]

human skin fibroblasts [2] = assay: BrdU immunocytochemical analysis of proliferating cell population; type: cell-based
Description: Immunocytochemical analysis was performed using monoclonal antibody for bromodeoxyuridine (BrdU), and then percent BrdU positive cells are graphically shown. The values shown on the graph are mean values. The data are expressed as ±SD (n=3) (*P<0.05, by t-test).
The left panel is a set of graphs showing the results of immunocytochemical analysis performed using monoclonal antibody for BrdU, and the right panel is a graph showing the results of measurement of percent BrdU positive cells. The values shown on the graph are mean values. The data are expressed as mean±SD (n=3).
For immunostaining, cells were seeded on Matrigel-coated 4-well Lab-Tek chamber slides (Nunc, Naperville, Ill.) and cultured for 5 days under the indicated conditions. The cells were fixed in 4% paraformaldehyde at room temperature for 15 minutes, and then washed with PBS/0.2% BSA. Next, the cells were passed through PBS/0.2% BSA/0.1% Triton X-100 for 15 minutes, and then incubated with 4% normal donkey serum (Molecular Probes, Eugene, Oreg., USA) in PBS/0.2% BSA at room temperature for 1 hour. The cells were diluted with PBS/0.2% BSA, and then reacted with primary antibody at 4° C. for 2 hours. After washing, the cells were reacted with FITC- or Alexa594-conjugated secondary antibody (Invitrogen) in PBS/0.2% BSA at room temperature for 1 hour. The cells were counter-stained with 10 μg/ml DAPI. […]

[3] = test system: Nanog, Oct4, Rex1, p53, p21 and p16; assay: Expression of pluripotency markers and p53, p21, p16 during reprogramming (real-time RT-PCR, immunostaining); type: cell-based, human
Description: In still another example of the present invention, in order to examine whether the novel compound RSC-133 can promote kinetics in a culture process for reprogramming to shorten the time required for the induction of reprogramming, the expression patterns of pluripotency-specific markers were analyzed at various time points.
Total RNA was isolated from the produced cells using RNeasy Mini kit (Qiagen, Valencia, Calif.), and then reverse-transcribed using SuperScript First-strand synthesis system kit (Invitrogen) according to the manufacturer's instruction. […]
In order to examine whether RSC-133 can increase the rate of reprogramming, the relative levels of mRNA expressed during the reprogramming process were measured. […] Thus, it can be seen that RSC-133 can increase the efficiency of reprogramming and also can be involved in the reprogramming process to stimulate kinetics.

[4] = test system: H9 human embryonic stem cells; assay: Maintenance of undifferentiated state of hESC in unconditioned medium; type: cell-based
Description: It was observed that, when H9 human embryonic stem cells (hESs) were cultured in unconditioned medium (UM), the differentiation thereof was induced, but when the cells were cultured in UM containing RSC-133, the degree of induced differentiation was inhibited, and pluripotency was acquired again. The efficiency of acquisition of pluripotency was measured by calculating the number of colonies showing AP activity. The values shown on the graph are mean values. The data are expressed as mean±SD (n=3) (*P<0.01, **P<0.005, by t-test).
Human skin fibroblasts (hFFs) were used as a negative control group. H3 and GAPDH proteins were used as internal controls.
Human embryonic stem cell (hESC) H9 (NIH Code, WA09; WiCell Research Institute, Madison, Wis.) and reprogrammed stem cells (hiPSC) were generally cultured in hESC culture medium (composed of 80% DMEM/F12, 20% knockout serum replacement (KSR, Invitrogen, Carlsbad, Calif.), 1% non-essential amino acids (NEAR, Invitrogen), 1 mM L-glutamine (Invitrogen), 0.1 mM β-mercaptoethanol (Sigma, St. Louis, Mo.) and 6 ng/ml bFGF (basic fibroblast growth factor, Invitrogen)) on γ-irradiated MEFs (mouse embryonic fibroblasts). The cells were subcultured with 1 mg/ml collagenase IV (Invitrogen) at intervals of 5-6 days. Human newborn foreskin fibroblasts (hFF, ATCC, catalog number CRL-2097; American Type Culture Collection, Manassas, Va.) were cultured in DMEM containing 10% FBS (fetal bovine serum, Invitrogen), 1% non-essential amino acid, 1 mM L-glutamine and 0.1 mM β-mercaptoethanol.
When human embryonic stem cells (H9) are cultured in unconditioned medium (UM), their differentiation is induced. […] As a positive control group, embryonic stem cells cultured for 6 days in MEF-conditioned medium (CM) effective for maintenance of an undifferentiated state were used. The efficiency of maintenance of an undifferentiated state and inhibition of differentiation was determined by measuring the number of colonies showing AP activity (the lower panel of FIG. 28). […]

[5] = test system: human skin fibroblasts (hFFs); assay: Reprogramming of human skin fibroblasts, AP-positive colony count; type: cell-based

SMILES: NC(=O)c1cccc(NC(=O)/C=C/c2c[nH]c3ccccc23)c1 [RSC-133, 3-[3-(1H-indol-3-yl)-acrylamido]-benzamide]
- growth of cells, reprogramming not induced (human skin fibroblasts [1]; human skin fibroblasts or OSKM-transfected fibroblasts, reprogramming not induced (FIG. 12)): increased the growth of the cells
- increase of growth rate of the cells during reprogramming (human skin fibroblasts [1]; reprogramming induced, compared to control group (FIG. 11)): about 1.7 times
- BrdU-positive cell population, reprogramming not induced (human skin fibroblasts [2]; OSKM-transfected human skin fibroblasts, reprogramming not induced (FIG. 14)): increased BrdU-positive cell population
- BrdU-positive cell population during the reprogramming process (human skin fibroblasts [2]; during reprogramming (FIG. 13)): increased BrdU-positive cell population
- time of appearance of pluripotency-specific markers (Nanog, Tra1-81, Oct4, Rex1) ([3]; immunostaining and real-time PCR at various time points (FIGS. 15, 16)): appeared early than that in an untreated control group
- expression levels of undifferentiation markers Nanog, Oct4 and Rex1 ([3]; real-time RT-PCR, cells harvested at 5-day intervals, presence vs absence of RSC-133 (FIG. 16)): relatively increased
- expression levels of p53, p21 and p16 ([3]; real-time RT-PCR, presence vs absence of RSC-133 (FIG. 16 lower panel)): relatively inhibited
- induced differentiation and pluripotency of hESC in unconditioned medium (AP-positive colonies) ([4]; H9 cultured 6 days in UM supplemented with RSC-133 (FIG. 28)): the degree of induced differentiation was inhibited and pluripotency was re-acquired
- expression of Oct4 and H3K9ace (Western blot) ([4]; H9 in UM containing RSC-133 vs CM (FIG. 29)): at levels similar to those in the human embryonic stem cells cultured in CM
- expression of pluripotency-specific markers Oct4 and Tra1-81 (immunostaining) ([4]; H9 in UM supplemented with RSC-133 vs CM): expressed at levels similar to those of human embryonic stem cells cultured in CM
- substitution for reprogramming factor c-Myc, compound alone ([5]; RSC-133 alone, AP-positive colonies (FIG. 5)): did not show the substituting effect
- substitution for reprogramming factor c-Myc, in combination with sodium butyrate ([5]; RSC-133 in combination with sodium butyrate (NaB), compared to control group (FIG. 5)): substituted for c-Myc factor to increase the efficiency of reprogramming
- efficiency of reprogramming, treatment in the initial stage ([5]; initial stage (including 5 days after viral infection), compared to other periods of equal length (FIG. 10)): significantly increased
